Source: publication PMC9607427, “Novel 7-Chloro-(4-thioalkylquinoline) Derivatives: Synthesis and Antiproliferative Activity through Inducing Apoptosis and DNA/RNA Damage” (Pharmaceuticals, 2022)

How the values were obtained:
[1] = system: CCRF-CEM (childhood T cell acute lymphoblastic leukemia); assay: Cytotoxic MTS assay, CCRF-CEM; format: cell-based, human
Summary of the method: (§1)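 IC50 values derive from MTS metabolic staining after 3 days of compound exposure, at least three biological replicates in technical duplicate; SD typically up to 20% of the mean.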

[2] = system: BJLD (human lung fibroblast doxorubicin-resistant); assay: Cytotoxic MTS assay, BJLD; format: cell-based
Summary of the method: as §1

[3] = system: CCRF-CEM lymphoblasts; assay: BrU incorporation analysis (RNA synthesis); format: cell-based, human; conditions: 24 h
Experimental: The effect of compounds on cell cycle distribution was determined to gain insights into the mechanism of its antiproliferative activity. […] For example, as compared with control, the percentage of cells in G2/M phases was increased by treatment with 5 × IC50 μM of compounds for 24 h (Table 4). […] As shown in (Table 4), there was a marked increase in the sub-G1 from 2.91 in untreated cells. 5-Bromo-2-deoxyuridine (BrDU) is incorporated into newly synthesized DNA, and 5-bromouridine (BrU) pulse labeling is therefore commonly used as a proliferation marker. Low BrDU and BrU incorporation into the DNA or RNA, respectively, of treated cells with all compounds at 5 × IC50 reflected inhibition of DNA and RNA synthesis, indicating irreversible apoptotic changes. The percentage of […] cells incorporating 5-bromouridine is proportional to the transcriptional activity of CCRF-CEM cells. Cells were cultured and treated as described above. Before harvesting, pulse-labeling with 1 mM BrU for 30 min followed. The cells were then fixed in 1% buffered paraformaldehyde with 0.05% NP-40 at rt for 15 min, and then stored at 4 °C overnight. Before measurement, they were washed with 1% glycine in PBS, washed with PBS again and stained with primary anti-BrDU antibody cross-reacting to BrU (Exbio) for 30 min at rt in the dark. From this point, the experiment was performed exactly as in the previous method.

[4] = system: MRC-5LD (noncancerous human lung fibroblasts doxorubicin-resistant); assay: Cytotoxic MTS assay, MRC-5LD; format: cell-based
Summary of the method: as §1

[5] = system: HCT116p53−/− (HCT116 with deleted p53 gene); assay: Cytotoxic MTS assay, HCT116p53−/−; format: cell-based, human
Summary of the method: as §1

[6] = system: CEM-DNR bulk (daunorubicin-resistant subline of CCRF-CEM cells); assay: Cytotoxic MTS assay, CEM-DNR; format: cell-based, human
Summary of the method: as §1

[7] = system: A549 (lung adenocarcinoma); assay: Cytotoxic MTS assay, A549; format: cell-based, human
Summary of the method: as §1

[8] = system: HCT116 (colorectal carcinoma); assay: Cytotoxic MTS assay, HCT116; format: cell-based, human
Summary of the method: as §1

[9] = 5 × IC50 (second value of cell)

Row | SMILES | IC50 [1] | IC50 [2] | RNA Synthesis (% positive of cells) ([3]; 1 × IC50 (first value of cell)) | RNA Synthesis (% positive of cells) [3, 9] | IC50 [4] | IC50 [5] | IC50 [6] | IC50 [7] | IC50 [8]
1 | COc1ccccc1C(=O)OCCS(=O)(=O)c1cc[n+]([O-])c2cc(Cl)ccc12 [Compound 68, 2-[(N-Oxide 7-chloroquinolin-4-yl)sulfonyl]ethyl-2-methoxybenzoate] | 1.23 µM | 10.1 µM | 37.4% | 3.8% | 4.17 µM | 8.3 µM | 12.2 µM | 27 µM | 5.25 µM
2 | O=C(OCCS(=O)(=O)c1cc[n+]([O-])c2cc(Cl)ccc12)c1ccc(C(F)(F)F)cc1 [Compound 72, 2-[(N-Oxide 7-chloroquinolin-4-yl)sulfonyl]ethyl-4-(trifluoromethyl)benzoate] | 2.14 µM | 27 µM | 21.64% | 2.19% | 13.9 µM | 16.4 µM | 25.2 µM | 28.5 µM | 17.3 µM
3 | COc1ccc(C(=O)OCCS(=O)(=O)c2cc[n+]([O-])c3cc(Cl)ccc23)cc1[N+](=O)[O-] [Compound 69, 2-[(N-Oxide 7-chloroquinolin-4-yl)sulfonyl]ethyl-4-methoxy-3-nitrobenzoate] | 1.38 µM | 19.5 µM | 31.54% | 2.64% | 2.74 µM | 11.2 µM | 19.1 µM | 28.3 µM | 13.1 µM
4 | COc1cc(OC)c(C(=O)OCCS(=O)(=O)c2cc[n+]([O-])c3cc(Cl)ccc23)cc1OC [Compound 66, 2-[(N-Oxide 7-chloroquinolin-4-yl)sulfonyl]ethyl-2,4,5-trimethoxybenzoate] | 1.11 µM | 11 µM | 29.44% | 3.05% | 2.3 µM | 7.94 µM | 8.03 µM | 28 µM | 9.22 µM
5 | Cc1ccc([N+](=O)[O-])c(C(=O)OCCS(=O)(=O)c2cc[n+]([O-])c3cc(Cl)ccc23)c1 [Compound 70, 2-[(N-Oxide 7-chloroquinolin-4-yl)sulfonyl]ethyl-5-methyl-2-nitrobenzoate] | 1.16 µM | > 50 µM | 35.28% | 2.88% | 6.47 µM | 8.75 µM | 17.4 µM | 28.2 µM | 11.5 µM
6 | COc1ccc(OC)c(C(=O)OCCS(=O)(=O)c2cc[n+]([O-])c3cc(Cl)ccc23)c1 [Compound 65, 2-[(N-Oxide 7-chloroquinolin-4-yl)sulfonyl]ethyl-2,5-dimethoxybenzoate] | 0.55 µM | 9.68 µM | 36.04% | 24.95% | 2.02 µM | 8.26 µM | 8.97 µM | 28.2 µM | 8.83 µM
7 | COc1ccc(C(=O)OCCS(=O)(=O)c2cc[n+]([O-])c3cc(Cl)ccc23)cc1 [Compound 63, 2-[(N-Oxide 7-chloroquinolin-4-yl)sulfonyl]ethyl-4-methoxybenzoate] | 0.77 µM | 12.1 µM | 35.01% | 2.79% | 2.91 µM | 16.4 µM | 8.74 µM | 28.8 µM | 16.2 µM
